Data as given in patent US20230285405A1, “Pharmaceuticals for Treating or Preventing Nidoviruses and Picornaviruses” (priority 2020, published 2023).
Where a name gives a salt, the structure may show the parent alone. Read-outs that look alike come from different tables or passages of the source.

Columns and labels:
OC43 = assay: Drug screening: OC43 nucleoprotein staining in infected A549-mRuby cells; assay type: cell-based, human beta coronavirus OC43; conditions: for activity at 10 µM: Betacoronavirus 1, OC43, 96 h
Procedure: A549-mRuby cells were seeded (3,000 cells per well) in nine 384-well plates using Multidrop combi. Cells were seeded in a final volume of 30 μl with DMEM+10% BCS. The following day, 20 μl of OC43 were added (MOI 0.3) and incubated at 33° C., 5% CO2 for 1 hour. 50 nl from the Selleck FDA-approved drug library (cat #L1300, Selleck) were added (1:1,000 dilution). Two columns (32 wells) were left uninfected and two columns were treated with DMSO and virus (no drug control). Cells were imaged using the IncuCyte S3 to measure cell numbers at day 0. Cells were incubated for 4 days at 33° C., 5% CO2 and were stained for OC43 nucleoprotein. All the following steps were performed at room temperature. Cells were fixed in 50 μl 4% PFA/PBS for 15 min, blocked with 50 μl 10% BSA+0.5% Triton X-100 in PBS for 30 minutes, stained with 50 μl anti-OC43 (cat #MAB9013, Milipore) diluted 1:2,000 in 2% BSA+0.1% Triton X-100 in PBS for 1 hour, washed with 50 μl PBS three times, stained with anti-mouse-AlexaFluor488 diluted 1:1,000 in 2% BSA+0.1% Triton X-100 in PBS for 1 hour, washed with 50 μl PBS three times and imaged on the IncuCyte S3 (day 4). The screen was performed twice.
(§1) The following parameters were extracted from the images: number of cells at day 0, number of cells at day 4 and total OC43 staining intensity at day 4. For analysis, OC43 staining intensity was normalized to the number of cells in the well and further normalized to the mean of the no drug controls, which was set to 100. […] For each plate, a drug was considered as a putative hit if it reduced OC43 staining by over 3 standard deviations from the mean of the no drug controls. Drugs were considered hits if they were not toxic and reduced OC43 staining by over 3 standard deviations in both repeats.
(§2) A library of 1,900 clinically used drugs was screened, the drugs either approved for human use or having extensive safety data in humans (Phase 2 or 3 clinical trials), for their ability to inhibit OC43 infection of the human lung epithelial cell line A549 (expressing an H2B-mRuby nuclear reporter). One day after plating, cells were infected at an MOI of 0.3, incubated at 33° C. for 1 hour and drugs were added to a final concentration of 10 μM. Cells were then incubated at 33° C. for 4 days, fixed and stained for the presence of the viral nucleoprotein. The cells were imaged at day 0 (following drug addition) and day 4 (after staining) to determine the drugs effect on cell growth and OC43 infection.

A549-mRuby cells = assay: Drug screening: effect on cell growth (cell number day 4 / day 0); conditions: 10 μM drug; for Growth_1: number of cells at day 4 divided by number of cells at day 0 / toxic_1: repeat #1; for Growth_2: number of cells at day 4 divided by number of cells at day 0 / toxic_2: repeat #2
Procedure: A549-mRuby cells were seeded (3,000 cells per well) in nine 384-well plates using Multidrop combi. Cells were seeded in a final volume of 30 μl with DMEM+10% BCS. The following day, 20 μl of OC43 were added (MOI 0.3) and incubated at 33° C., 5% CO2 for 1 hour. 50 nl from the Selleck FDA-approved drug library (cat #L1300, Selleck) were added (1:1,000 dilution). Two columns (32 wells) were left uninfected and two columns were treated with DMSO and virus (no drug control). Cells were imaged using the IncuCyte S3 to measure cell numbers at day 0. Cells were incubated for 4 days at 33° C., 5% CO2 and were stained for OC43 nucleoprotein. All the following steps were performed at room temperature. […] The screen was performed twice.
as §1, §2

[1] = 10 μM drug, MOI 0.3, 4 days, normalized to no-drug controls in the same plate, repeat #1, read-out: OC43_1: % staining of OC43 in screen repeat #1
[2] = 10 μM drug, MOI 0.3, 4 days, normalized to no-drug controls in the same plate, repeat #2, read-out: OC43_2: % staining of OC43 in screen repeat #2
[3] = 10 μM drug, MOI 0.3, 4 days, OC43 staining normalized to no-drug controls, mean of the two screen repeats, read-out: OC43_mean
[4] = 10 μM drug, MOI 0.3, 4 days, OC43 staining normalized to no-drug controls, mean of the two screen repeats
[5] = 10 μM drug, MOI 0.3, 4 days, normalized to no-drug controls in the same plate, repeat #1
[6] = 10 μM drug, MOI 0.3, 4 days, normalized to no-drug controls in the same plate, repeat #2

Compound | hit_1 (OC43; 10 μM drug, repeat #1) | hit_2 (OC43; 10 μM drug, repeat #2) | activity at 10 µM (OC43; [1]) | activity at 10 µM (OC43; [2]) | activity at 10 µM (OC43; read-out: OC43_mean) | Growth_1: number of cells at day 4 divided by number of cells at day 0 (A549-mRuby cells) | toxic_1 (A549-mRuby cells) | Growth_2: number of cells at day 4 divided by number of cells at day 0 (A549-mRuby cells) | toxic_2 (A549-mRuby cells) | activity at 10 µM (OC43; [3]) | OC43_mean (OC43; [4]) | OC43_1: % staining of OC43 in screen repeat #1 (OC43; [5]) | OC43_2: % staining of OC43 in screen repeat #2 (OC43; [6]) | Growth_1: number of cells at day 4 divided by number of cells at day 0 (A549-mRuby cells; Dihydrate) | Growth_2: number of cells at day 4 divided by number of cells at day 0 (A549-mRuby cells; Dihydrate) | activity at 10 µM (OC43; read-out: OC43_mean, 10 μM drug, MOI 0.3, 4 days, OC43 staining normalized to no-drug controls, mean of the two screen repeats) | Growth_1: number of cells at day 4 divided by number of cells at day 0 (A549-mRuby cells; hydrochloride) | Growth_2: number of cells at day 4 divided by number of cells at day 0 (A549-mRuby cells; hydrochloride)
CCN(CCCc1ccccc1)CCCc1ccccc1 [Alverine Citrate] | 1 | 1 | 22.1% | 35.3% | 28.7% | 3.7 | 0 | 4.0 | 0 | – | – | – | – | – | – | – | – | –
CCCOC(C(=O)OC1CCN(C)CC1)(c1ccccc1)c1ccccc1 [Propiverine hydrochloride] | 1 | 1 | 29.5% | 25.2% | – | 3.0 | 0 | 2.2 | 0 | 27.3% | – | – | – | – | – | – | – | –
CC(C)c1nc(CN(C)C(=O)N[C@@H](CCN2CCOCC2)C(=O)N[C@H](CC[C@H](Cc2ccccc2)NC(=O)OCc2cncs2)Cc2ccccc2)cs1 [Cobicistat (GS-9350), Cobicistat] | 1 | 1 | 23% | 20.7% | – | 4.9 | 0 | 5.3 | 0 | 21.8% | – | – | – | – | – | – | – | –
CN1CCC(OC(c2ccccc2)c2ccccc2)CC1 [Diphenylpyraline HCl] | 1 | 1 | 33.2% | 51.6% | 42.4% | 6.0 | 0 | 4.2 | 0 | – | – | – | – | – | – | – | – | –
Ibutilide Fumarate | 1 | 1 | – | – | – | 4.8 | 0 | 4.8 | 0 | – | 54.4% | 45.9% | 63.0% | – | – | – | – | –
Alimemazine Tartrate | 1 | 1 | – | – | – | 2.6 | 0 | 2.2 | 0 | – | 40.8% | 47.9% | 33.7% | – | – | – | – | –
CN(C)CCCOc1nn(Cc2ccccc2)c2ccccc12 [Benzydamine HCl] | 1 | 1 | 26.2% | 25.6% | – | 4.9 | 0 | 4.6 | 0 | 25.9% | – | – | – | – | – | – | – | –
CC[C@H]1OC(=O)[C@H](C)[C@@H](O[C@H]2C[C@@](C)(OC)[C@@H](O)[C@H](C)O2)[C@H](C)[C@@H](O[C@@H]2O[C@H](C)C[C@H](N(C)C)[C@H]2O)[C@](C)(O)C[C@@H](C)CN(C)[C@H](C)[C@@H](O)[C@]1(C)O [Azithromycin Dihydrate] | 1 | 1 | 20.5% | 15.9% | – | – | 0 | – | 0 | 18.2% | – | – | – | 5.4 | 5.0 | – | – | –
CCCc1cc(=O)[nH]c(=S)[nH]1 [Propylthiouracil] | 1 | 1 | 44.3% | 55.1% | – | 3.7 | 0 | 4.2 | 0 | – | – | – | – | – | – | 49.7% | – | –
COc1ccccc1OCCNCC(O)COc1cccc2[nH]c3ccccc3c12 (stereo not shown) [Carvedilol] | 1 | 1 | 20.1% | 29.1% | – | 4.5 | 0 | 3.1 | 0 | 24.6% | – | – | – | – | – | – | – | –
CN1CCN(CCOc2cc(OC3CCOCC3)c3c(Nc4c(Cl)ccc5c4OCO5)ncnc3c2)CC1 [Saracatinib (AZD0530), Saracatinib] | 1 | 1 | 21.2% | 24.1% | – | 3.1 | 0 | 4.0 | 0 | 22.7% | – | – | – | – | – | – | – | –
COc1cc2ncnc(Nc3ccc(F)c(Cl)c3)c2cc1OCCCN1CCOCC1 [Gefitinib hydrochloride] | 1 | 1 | 20% | 27.8% | – | – | 0 | – | 0 | 23.9% | – | – | – | – | – | – | 3.5 | 3.3
CCN(CCO)CCCC(C)Nc1ccnc2cc(Cl)ccc12 (stereo not shown) [Hydroxychloroquine Sulfate] | 1 | 1 | 17.8% | 14.6% | – | 5.1 | 0 | 4.9 | 0 | 16.2% | – | – | – | – | – | – | – | –
OCc1cc(C(O)CNCCCCCCOCCCCc2ccccc2)ccc1O (stereo not shown) [Salmeterol Xinafoate] | 1 | 1 | 39.3% | 20.4% | 29.9% | 2.9 | 0 | 2.5 | 0 | – | – | – | – | – | – | – | – | –
Pizotifen Malate | 1 | 1 | – | – | – | 3.4 | 0 | 2.8 | 0 | – | 25.4% | 33.3% | 17.5% | – | – | – | – | –
CCC(=O)OCC(=O)[C@@]1(OC(=O)CC)[C@@H](C)C[C@H]2[C@@H]3CCC4=CC(=O)C=C[C@]4(C)[C@@]3(Cl)[C@@H](O)C[C@@]21C [Beclomethasone dipropionate] | 1 | 1 | 38.3% | 29% | – | 3.4 | 0 | 4.6 | 0 | 33.6% | – | – | – | – | – | – | – | –
C=C[C@H]1C[N@@]2CC[C@H]1C[C@@H]2[C@@H](O)c1ccnc2ccc(OC)cc12 [Quinidine sulfate] | 1 | 1 | 25.1% | 47.9% | – | – | – | – | – | – | – | – | – | – | – | – | – | –
